Results published in the supplement of paper PMC7695840.

What was measured:
[1] = tested on: Staphylococcus aureus MW2 (mecA+); assay: IC50 (growth, competition assay); conditions: cefoxitin: subinhibitory
Procedure, shortened: (§1)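 Pre-induced, 1:1-mixed fluorescent S. aureus MW2 mecA+ and ΔmecA strains were grown 20 h at 37 °C, 90% humidity, unshaken, in LB with a daily-set subinhibitory cefoxitin dose, in 1536-well plates. Compounds were given on five- or nine-point 2-fold gradients, in two dye-swapped replicates. DsRed (540/590) and GFP (485/520) were scaled per plate between single-strain control medians, with No Treatment then set to 0.5. Per-strain IC50 was the dose halving the No Treatment signal, or the maximal signal.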

[2] = tested on: Staphylococcus aureus MW2 delta-mecA (mecA-); assay: IC50 (growth, competition assay); conditions: cefoxitin: subinhibitory
Procedure, shortened: as §1

Row | SMILES | IC50 ([1]; fluorescent label: DsRed) | IC50 ([1]; fluorescent label: GFP) | IC50 ([2]; fluorescent label: DsRed) | IC50 ([2]; fluorescent label: GFP)
1 | COC(=O)C1=C(C)NC(C)=C(C(=O)OCC(C)C)C1c1ccccc1[N+](=O)[O-] (stereo not drawn) [Nisoldipine] | 63.1 µM | 99.2 µM | 12.7 µM | 7.55 µM
2 | CC(=O)Oc1ccccc1C(=O)Nc1ncc([N+](=O)[O-])s1 [Nitazoxanide (Alinia, Annita)] | 55.5 µM | 57.6 µM | 21.9 µM | 24.9 µM
3 | COC(=O)Nc1nc2cc(C(=O)c3cccs3)ccc2[nH]1 [Nocodazole] | 24.4 µM | 29 µM | < 9.85 µM | < 9.85 µM
4 | CCn1cc(C(=O)O)c(=O)c2cc(F)c(N3CCNCC3)cc21 [Norfloxacin (Norxacin)] | 0.816 µM | 0.772 µM | < 0.498 µM | < 0.498 µM
5 | COC1=CC(=O)C(O)=C/C1=C\C=C\c1ccccc1 [OBTUSAQUINONE] | < 9.85 µM | < 9.85 µM | < 9.85 µM | < 9.85 µM
6 | Cc1cc(CC(C)CC(C)(C)C)n(O)c(=O)c1 (stereo not drawn) [OCTOPIROX] | 120 µM | 106 µM | 89.5 µM | 70 µM
7 | C=CC1=C(C(=O)O)N2C(=O)[C@@H](NC(=O)/C(=N\O)c3csc(N)n3)[C@H]2SC1 [OMNICEF] | < 9.85 µM | < 9.85 µM | < 9.85 µM | < 9.85 µM
8 | C[C@@H]1CN(c2c(F)c(F)c3c(=O)c(C(=O)O)cn(C4CC4)c3c2F)C[C@H](C)N1 [ORBAX] | < 9.85 µM | 15.1 µM | 17.8 µM | < 9.85 µM
9 | CN(C(=O)CN(CCO)CC(=O)N(C)C(C)(C)Cc1ccccc1)C(C)(C)Cc1ccccc1 [OXETHAZAINE] | 103 µM | 111 µM | 40.2 µM | 30.5 µM
10 | Clc1ccc(CO/N=C(\Cn2ccnc2)c2ccc(Cl)cc2Cl)c(Cl)c1 [OXISTAT] | 35.3 µM | 43.3 µM | 30.4 µM | 17.3 µM
11 | CC1COc2c(N3CCN(C)CC3)c(F)cc3c(=O)c(C(=O)O)cn1c23 (stereo not drawn) [Ofloxacin] | < 9.85 µM | < 9.85 µM | < 9.85 µM | < 9.85 µM
12 | C=C1C(=O)[C@]23[C@H](O)[C@H]1CC[C@H]2[C@@]12CO[C@]3(O)[C@@H](O)[C@@H]1C(C)(C)CC[C@@H]2O [Oridonin (Isodonol)] | 29.5 µM | 51.5 µM | 13.7 µM | < 9.85 µM
